What was measured:
Assay type in all cases: cell-based
PfCRT^3D7 = PfCRT^3D7 (Plasmodium falciparum, UniProt Q8IBZ9); experiment: cell-based; settings: for PfCRT-mediated [3H]CQ transport, trans-stimulation (% PfCRT3D7 control): PfCRT3D7 oocytes, normalised to oocyte type control; for [3H]CQ transport, PfCRT3D7 (% PfCRT3D7 control): trans-stimulation, solute 45 mM injected (estimated intracellular)
Method in brief: (§1)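 Transport measured in Xenopus oocytes expressing the transporters, 1.5 h at 27.5 °C in ND96 pH 5.5 unless noted. For trans-stimulation, VF-6 injected in 25 nL ND96 at pH 5.0–7.0 or Na^+-free (choline) buffer; intracellular levels based on ~400 nL oocyte volume. Ten oocytes per treatment, ≥4 experiments.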

PfCRT^Ecu1110 [1] = target: T1, PfCRT^Ecu1110 (Plasmodium falciparum, UniProt Q9N623, A220S/I356L/K76T/N326D); experiment: cell-based; settings: for PfCRT-mediated [3H]CQ transport, trans-stimulation (% PfCRTEcu1110 control): PfCRTEcu1110 oocytes, normalised to oocyte type control; for [3H]CQ transport (% PfCRTDd2 control), trans-stimulation, PfCRTEcu1110: PfCRT-mediated component (background subtracted), sheet title says normalised to PfCRTDd2 control, mean ± SEM, SEM
T1 sequence (Q9N623 whole entry A220S/I356L/K76T/N326D): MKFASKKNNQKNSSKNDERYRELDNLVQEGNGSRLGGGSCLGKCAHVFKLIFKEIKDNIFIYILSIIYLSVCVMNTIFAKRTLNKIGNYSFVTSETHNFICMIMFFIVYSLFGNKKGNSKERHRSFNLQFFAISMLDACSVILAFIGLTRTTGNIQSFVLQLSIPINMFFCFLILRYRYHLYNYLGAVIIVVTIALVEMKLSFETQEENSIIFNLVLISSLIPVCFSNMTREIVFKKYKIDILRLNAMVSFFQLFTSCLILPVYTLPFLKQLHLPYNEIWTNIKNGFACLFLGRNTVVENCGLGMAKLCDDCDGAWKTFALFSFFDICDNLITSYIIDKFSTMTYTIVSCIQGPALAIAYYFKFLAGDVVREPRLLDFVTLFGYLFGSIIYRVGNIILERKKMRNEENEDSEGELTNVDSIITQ
Method in brief: as §1

PfNT1 = target: T2, PfNT1 (Plasmodium falciparum, UniProt Q8IDM6); experiment: cell-based; settings: trans-stimulation, solute 45 mM injected (estimated intracellular)
T2 construct: expressed in transfected cells; host or cells: Xenopus laevis oocytes (stage V-VI), cRNA-injected
T2 sequence (Q8IDM6 whole entry): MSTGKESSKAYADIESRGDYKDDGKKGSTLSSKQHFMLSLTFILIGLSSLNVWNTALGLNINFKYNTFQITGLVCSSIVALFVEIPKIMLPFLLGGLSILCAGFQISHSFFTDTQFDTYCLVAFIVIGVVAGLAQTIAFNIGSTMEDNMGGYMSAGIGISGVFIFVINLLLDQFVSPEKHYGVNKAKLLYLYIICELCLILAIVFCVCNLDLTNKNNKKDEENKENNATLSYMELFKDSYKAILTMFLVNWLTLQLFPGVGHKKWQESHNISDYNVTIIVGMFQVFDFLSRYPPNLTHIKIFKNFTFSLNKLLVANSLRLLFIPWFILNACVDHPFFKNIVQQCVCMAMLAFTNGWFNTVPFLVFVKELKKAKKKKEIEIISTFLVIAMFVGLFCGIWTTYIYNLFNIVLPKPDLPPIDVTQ
Method in brief: as §1

PfCRT^Dd2 [2] = target: T3, PfCRT^Dd2 (Plasmodium falciparum, UniProt Q9N623, A220S/I356T/K76T/M74I/N326S/N75E/Q271E/R371I); experiment: cell-based; settings: for PfCRT-mediated [3H]CQ transport, trans-stimulation (% PfCRTDd2 control): PfCRTDd2 oocytes, normalised to oocyte type control; for [3H]CQ transport (% PfCRTDd2 control), trans-stimulation, PfCRTDd2: PfCRT-mediated component (background subtracted), mean ± SEM, SEM
T3 sequence (Q9N623 whole entry A220S/I356T/K76T/M74I/N326S/N75E/Q271E/R371I): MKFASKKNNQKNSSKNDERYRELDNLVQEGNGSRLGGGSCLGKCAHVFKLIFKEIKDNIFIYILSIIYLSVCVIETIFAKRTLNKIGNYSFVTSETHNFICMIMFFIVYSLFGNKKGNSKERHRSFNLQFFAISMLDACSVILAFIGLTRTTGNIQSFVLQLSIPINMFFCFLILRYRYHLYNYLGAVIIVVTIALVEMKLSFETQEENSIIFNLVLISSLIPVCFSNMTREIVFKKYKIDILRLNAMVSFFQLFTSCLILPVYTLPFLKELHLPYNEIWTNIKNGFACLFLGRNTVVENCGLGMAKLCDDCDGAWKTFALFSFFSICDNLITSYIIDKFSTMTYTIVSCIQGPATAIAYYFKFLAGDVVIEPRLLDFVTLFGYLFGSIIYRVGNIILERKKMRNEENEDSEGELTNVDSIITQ
Method in brief: as §1

PfCRT^Ecu1110 [3] = target: T1, PfCRT^Ecu1110; experiment: [3H]CQ uptake into Xenopus oocytes, cis-inhibition by unlabelled solute; settings: for PfCRT-mediated [3H]CQ transport, cis-inhibition (% PfCRTEcu1110 control): PfCRTEcu1110 oocytes, background [3H]CQ accumulation subtracted, normalised to oocyte type control; for [3H]CQ transport (% PfCRTEcu1110 control), cis-inhibition, PfCRTEcu1110: PfCRT-mediated component (background subtracted), sheet title says normalised to PfCRTDd2 control, mean ± SEM, SEM
Method in brief: (§2)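 Washed oocytes (ten per treatment) were exposed to label in pH 5.5 ND96 for 1.5 h at 27.5 °C. Buffer was then removed, cells rinsed in ice-cold ND96, lysed in SDS and counted.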

PfCRT^Dd2 [4] = target: T3, PfCRT^Dd2; experiment: as above; settings: PfCRTDd2 oocytes, background [3H]CQ accumulation subtracted, normalised to oocyte type control
Method in brief: as §2

[5] = [test solute]i = 5 mM (intracellular)
[6] = [test solute]i = 45 mM (intracellular; 30 mM for some solutes due to solubility)
[7] = [test solute]i = 5 mM (injected)
[8] = [test solute]i = 45 mM (30 mM for some solutes due to solubility)

Sequence of PfCRT^3D7 (Q8IBZ9 59-398): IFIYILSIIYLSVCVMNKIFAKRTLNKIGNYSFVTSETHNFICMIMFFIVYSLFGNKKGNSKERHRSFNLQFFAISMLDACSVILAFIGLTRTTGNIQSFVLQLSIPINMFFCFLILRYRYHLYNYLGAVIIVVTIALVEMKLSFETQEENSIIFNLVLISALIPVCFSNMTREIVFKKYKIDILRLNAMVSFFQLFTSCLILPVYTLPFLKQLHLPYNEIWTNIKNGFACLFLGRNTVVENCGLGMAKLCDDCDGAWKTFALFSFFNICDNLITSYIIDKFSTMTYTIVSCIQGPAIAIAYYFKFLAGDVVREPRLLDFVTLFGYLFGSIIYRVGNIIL

YFPHF [YF-5]
PfCRT-mediated [3H]CQ transport, trans-stimulation (% PfCRT3D7 control) (PfCRT^3D7; [5]): 128 ± 2.3 % PfCRT3D7 control
PfCRT-mediated [3H]CQ transport, trans-stimulation (% PfCRT3D7 control) (PfCRT^3D7; [6]): 147 ± 4.2 % PfCRT3D7 control
[3H]CQ transport, PfCRT3D7 (% PfCRT3D7 control) (PfCRT^3D7; Experiment 1): 142.23 % PfCRT3D7 control
[3H]CQ transport, PfCRT3D7 (% PfCRT3D7 control) (PfCRT^3D7; Experiment 2): 155.33 % PfCRT3D7 control
[3H]CQ transport, PfCRT3D7 (% PfCRT3D7 control) (PfCRT^3D7; Experiment 3): 162.85 % PfCRT3D7 control
[3H]CQ transport, PfCRT3D7 (% PfCRT3D7 control) (PfCRT^3D7; Experiment 4): 149.32 % PfCRT3D7 control
PfCRT-mediated [3H]CQ transport, trans-stimulation (% PfCRTEcu1110 control) (PfCRT^Ecu1110 [1]; [5]): 120 ± 2.7 % PfCRTEcu1110 control
PfCRT-mediated [3H]CQ transport, trans-stimulation (% PfCRTEcu1110 control) (PfCRT^Ecu1110 [1]; [6]): 131 ± 3.6 % PfCRTEcu1110 control
[3H]CQ transport (% PfCRTDd2 control), trans-stimulation, PfCRTEcu1110 (PfCRT^Ecu1110 [1]; [7]): 37 ± 1.5 % PfCRTEcu1110 control
[3H]CQ transport (% PfCRTDd2 control), trans-stimulation, PfCRTEcu1110 (PfCRT^Ecu1110 [1]; [8]): 40 ± 1.5 % PfCRTEcu1110 control
[3H]CQ transport, PfNT1 (% PfCRTDd2 control) (PfNT1; Experiment 1): 2.73 % PfCRTDd2 control
[3H]CQ transport, PfNT1 (% PfCRTDd2 control) (PfNT1; Experiment 2): 2.48 % PfCRTDd2 control
[3H]CQ transport, PfNT1 (% PfCRTDd2 control) (PfNT1; Experiment 3): 2.58 % PfCRTDd2 control
[3H]CQ transport, PfNT1 (% PfCRTDd2 control) (PfNT1; Experiment 4): 2.37 % PfCRTDd2 control
PfCRT-mediated [3H]CQ transport, trans-stimulation (% PfCRTDd2 control) (PfCRT^Dd2 [2]; [5]): 97 ± 3.4 % PfCRTDd2 control
PfCRT-mediated [3H]CQ transport, trans-stimulation (% PfCRTDd2 control) (PfCRT^Dd2 [2]; [6]): 113 ± 2.4 % PfCRTDd2 control
[3H]CQ transport (% PfCRTDd2 control), trans-stimulation, PfCRTDd2 (PfCRT^Dd2 [2]; [7]): 97 ± 3.4 % PfCRTDd2 control
[3H]CQ transport (% PfCRTDd2 control), trans-stimulation, PfCRTDd2 (PfCRT^Dd2 [2]; [8]): 113 ± 2.4 % PfCRTDd2 control
PfCRT-mediated [3H]CQ transport, cis-inhibition (% PfCRTEcu1110 control) (PfCRT^Ecu1110 [3]; [test solute] = 0.5 mM): 63 ± 3.5 % PfCRTEcu1110 control
PfCRT-mediated [3H]CQ transport, cis-inhibition (% PfCRTEcu1110 control) (PfCRT^Ecu1110 [3]; [test solute] = 1 mM): 48 ± 1.0 % PfCRTEcu1110 control
PfCRT-mediated [3H]CQ transport, cis-inhibition (% PfCRTEcu1110 control) (PfCRT^Ecu1110 [3]; [test solute] = 2 mM): 32 ± 2.1 % PfCRTEcu1110 control
[3H]CQ transport (% PfCRTEcu1110 control), cis-inhibition, PfCRTEcu1110 (PfCRT^Ecu1110 [3]; [test solute] = 0.5 mM): 20 ± 0.4 % PfCRTEcu1110 control
[3H]CQ transport (% PfCRTEcu1110 control), cis-inhibition, PfCRTEcu1110 (PfCRT^Ecu1110 [3]; [test solute] = 1 mM): 15 ± 0.1 % PfCRTEcu1110 control
[3H]CQ transport (% PfCRTEcu1110 control), cis-inhibition, PfCRTEcu1110 (PfCRT^Ecu1110 [3]; [test solute] = 2 mM): 10 ± 0.3 % PfCRTEcu1110 control
PfCRT-mediated [3H]CQ transport, cis-inhibition (% PfCRTDd2 control) (PfCRT^Dd2 [4]; [test solute] = 0.5 mM): 53 ± 3.1 % PfCRTDd2 control
PfCRT-mediated [3H]CQ transport, cis-inhibition (% PfCRTDd2 control) (PfCRT^Dd2 [4]; [test solute] = 1 mM): 39 ± 2.1 % PfCRTDd2 control
PfCRT-mediated [3H]CQ transport, cis-inhibition (% PfCRTDd2 control) (PfCRT^Dd2 [4]; [test solute] = 2 mM): 7.2 ± 0.1 % PfCRTDd2 control
